Assay results reported in ChEMBL document CHEMBL1150648, “Coproverdine, a novel, cytotoxic marine alkaloid from a new zealand ascidian” (J Nat Prod, 2002).

How the values were obtained:
Format in all cases: functional, cell-based
[1] = test system: A549; experiment: Cytotoxicity against human A549 cells
[2] = test system: DU-145; experiment: Cytotoxicity against human DU145 cells
[3] = test system: SK-MEL-28; experiment: Cytotoxicity against human SK-MEL-28 cells
[4] = test system: P388; experiment: Cytotoxicity against mouse P388 cells
[5] = test system: HT-29; experiment: Cytotoxicity against human HT-29 cells

Question: For `COC(=O)c1cccc2c3c(n(O)c12)C(O)(C=O)C=CC3=O` (stereo not given) [COPROVERDINE], which IC50 [1] is on record?
Answer: Its IC50 is 300 nM.

Question: And the IC50 [2]?
Answer: The IC50 was 300 nM.

Question: And the IC50 [3]?
Answer: Its IC50 is 300 nM.

Question: What about the IC50 [4] of the same molecule?
Answer: The IC50 was 1600 nM.

Question: What about the IC50 [5] of the same molecule?
Answer: The IC50 was 300 nM.
